{"source": "patent EP0878193A1", "about": "“REMEDIES FOR HERPESVIRUS INFECTION CAUSED BY HERPESVIRUS AND PREVENTIVES FOR RECURRENCE OF THE INFECTION BOTH CONTAINING TRITERPENE DERIVATIVES AS THE ACTIVE INGREDIENT” (Showa Shell Sekiyu K.K., priority 1996, dated 1997)", "key": {"[1]": {"test_system": "HSV-1", "assay": "plaque formation test (antiviral activity, CPE as index) on Vero cells", "format": "cell-based, herpes simplex virus type 1 (strain 7401 H)", "conditions": "Human alphaherpesvirus 1, Vero, 50% plaque formation inhibition concentration; HSV-1 on Vero cells; three experiments; read-out: EC50 (µg/mℓ) (average ± standard deviation)", "description": "(§1) In order to examine antiviral activity, herpes simplex virus type 1 (strain 7401 H) (referred sometimes to as \"HSV-1\" hereinafter), TK deficiency herpes simplex virus type 1 (strain B 2006) (referred sometimes to as \"TK^-\" hereinafter), phosphono acetic acid (referred to as \"PAA\" hereinafter) resistant herpes simplex virus type 1 (PAA resistant strain derived from 7401 H) (referred sometimes to as \"AP^r1\" hereinafter) and herpes simplex virus type 2 (strain Ito 1262) (referred sometimes to as \"HSV-2\" hereinafter) were used as viruses. […]\n(§2) That is, the above-described virus solution was diluted to a concentration of 100 plaques/0.2 mℓ, the thus diluted virus solution (0.2 mℓ) was inoculated into Vero cells which have been cultured into monolayer in a plastic dish of 60 mm in diameter, and the mixture was incubated at 37°C for 1 hour to effect adsorption of viruses to the Vero cells. After the adsorption, 2% fetal bovine serum-added MEM medium (5 mℓ) containing each drug solution to be measured having varied drug concentration and 0.8% methyl cellulose was overlaid on the just described virus-adsorbed monolayer Vero cells which were subsequently cultured at 37°C for 2 to 5 days to effect plaque formation. […] The number of plaques was counted under a stereoscopic microscope. […]"}, "[2]": {"test_system": "AP^r1", "assay": "plaque formation test (antiviral activity, CPE as index) on Vero cells", "format": "cell-based", "conditions": "Human alphaherpesvirus 1, Vero, read-out: EC50 (µg/mℓ) (average ± standard deviation), 50% plaque formation inhibition concentration, three experiments", "description": "as §1, §2"}, "[3]": {"test_system": "TK^-", "assay": "plaque formation test (antiviral activity, CPE as index) on Vero cells", "format": "cell-based, TK deficiency herpes simplex virus type 1 (strain B 2006)", "conditions": "Human alphaherpesvirus 1, Vero, read-out: EC50 (µg/mℓ) (average ± standard deviation)", "description": "as §1, §2"}, "[4]": {"test_system": "HSV-1, AP^r1, TK^-, HSV-2", "assay": "viral growth inhibition activity, plaque forming unit (PFU/mℓ) as index, 24 hours culture", "format": "cell-based, herpes simplex virus", "conditions": "5, 10 or 20 µg/mℓ compared with the control (water); also drug-resistant strains AP^r and TK^-; Table 2 is an image", "experimental": "Next, the viral growth inhibition activity was measured in the following manner making use of a plaque forming unit (PFU/mℓ) as an index. That is, each of the above-described viral strains was adsorbed to Vero cells which have been cultured into monolayer in a plastic dish of 60 mm in diameter, and the resulting cells were supplemented with 2% fetal bovine serum-added MEM medium (3 mℓ) and 3-oxo-olean-18-en-28-oic acid solution (1 mℓ) having varied concentration and cultured at 37°C for 24 hours. After 24 hours, the thus infected cells were subjected to three times of freezing-thawing and then to centrifugation (3,000 rpm, 15 minutes), and the resulting supernatant fluid was used as a virus solution to count the number of infectious viruses by the above-described plaque formation test and to calculate the plaque forming unit (PFU/mℓ) based on the counts."}, "[5]": {"test_system": "HSV-1", "assay": "amount of virus in skin and brain of mice infected with HSV-1 (plaque assay of tissue homogenates)", "format": "in vivo", "conditions": "for Skin/brain (ratio): ratio of the percentages of skin and brain", "experimental": "Next, effects of 3-oxo-olean-18-en-28-oic acid (moronic acid) against a virus in the animal body were examined by infecting skin cell tissues of mice with the viral strain HSV-1 and measuring the amount of the virus particles remained in the affected part of the skin and those migrated from the skin into intracerebral nerve cells 2, 3, 4 and 6 days after the infection, when a control (water only) or a varied amount of 3-oxo-olean-18-en-28-oic acid (moronic acid) was administered to the mice. In each of the experiments 1 and 2, three mice were used in one group and the average number of virus particles obtained from each mouse was used as the amount of virus. The amount of virus was measured by cutting off an area of 1 cm^2 around the affected part in the case of the skin or using the entire brain portion in the case of the brain. Each of the tissue samples was mixed with 2 mℓ of physiological saline and homogenated, the supernatant fluid obtained therefrom was used as a virus test solution to carry out a plaque assay (plaque measuring method) using cultured Vero cells, and the number of plaques thus counted was used as the amount of virus. The skin/brain ratio is a value calculated as the ratio of respective percentages obtained from the skin and the brain.\nWith regard to the numeral in ( ) such as (100%), (65.4%) or the like shown in the item of the amount of virus, the amount of virus in the control was defined as 100% and shown as (100%), the ratio of residual virus particles when 10 mg/kg of moronic acid was administered was 65.4% so that it was shown as (65.4%), and other numerals in ( ) under respective data were shown in the same manner."}, "[6]": {"conditions": "Exp. 1, 2 days after infection, 10 mg/kg"}, "[7]": {"conditions": "Exp. 1, 4 days after infection, 1 mg/kg"}, "[8]": {"conditions": "Exp. 1, 4 days after infection, 10 mg/kg"}, "[9]": {"conditions": "Exp. 1, 6 days after infection, 1 mg/kg"}, "[10]": {"conditions": "Exp. 1, 6 days after infection, 10 mg/kg"}, "[11]": {"conditions": "Exp. 2, 3 days after infection, 1 mg/kg"}, "[12]": {"conditions": "Exp. 2, 3 days after infection, 5 mg/kg"}, "[13]": {"conditions": "Exp. 2, 6 days after infection, 1 mg/kg"}, "[14]": {"conditions": "Exp. 2, 6 days after infection, 5 mg/kg"}}, "data": [{"smiles": "CC1(C)C=C2[C@H]3CC[C@@H]4[C@@]5(C)CCC(=O)C(C)(C)[C@@H]5CC[C@@]4(C)[C@]3(C)CC[C@@]2(C(=O)O)CC1", "note": "[Moronic acid, 3-oxo-olean-18-en-28-oic acid]", "values": [{"measurement": "EC50", "setting": "[1]", "value": "3.9 ± 1.1", "unit": "µg/mL"}, {"measurement": "EC50", "setting": "[2]", "value": "1.6 ± 0.4", "unit": "µg/mL"}, {"measurement": "EC50", "setting": "[3]", "value": "2 ± 0.4", "unit": "µg/mL"}, {"measurement": "ratio of plaques formed by each viral strain", "setting": "[4]", "value": "decreases"}, {"measurement": "Amount of virus (average ± standard deviation, PFU/organ) Skin", "setting": "[5]; [6]", "value": "4.9 ± 0.0 (log10 PFU)/cm^2"}, {"measurement": "Amount of virus Skin, relative to control defined as 100%", "setting": "[5]; [6]", "value": 91.2, "unit": "%"}, {"measurement": "Amount of virus (average ± standard deviation, PFU/organ) Brain", "setting": "[5]; [7]", "value": "< 2.4 ± 0.0 (log10 PFU)/total"}, {"measurement": "Amount of virus (average ± standard deviation, PFU/organ) Skin", "setting": "[5]; [7]", "value": "6.1 ± 0.4 (log10 PFU)/cm^2"}, {"measurement": "Amount of virus Brain, relative to control defined as 100%", "setting": "[5]; [7]", "value": "< 83.9", "unit": "%"}, {"measurement": "Amount of virus Skin, relative to control defined as 100%", "setting": "[5]; [7]", "value": 93.5, "unit": "%"}, {"measurement": "Skin/brain (ratio)", "setting": "[5]; [7]", "value": ">1.12"}, {"measurement": "Amount of virus (average ± standard deviation, PFU/organ) Brain", "setting": "[5]; [8]", "value": "< 2.40 ± 0.0 (log10 PFU)/total"}, {"measurement": "Amount of virus (average ± standard deviation, PFU/organ) Skin", "setting": "[5]; [8]", "value": "6.3 ± 0.3 (log10 PFU)/cm^2"}, {"measurement": "Amount of virus Brain, relative to control defined as 100%", "setting": "[5]; [8]", "value": "< 83.9", "unit": "%"}, {"measurement": "Amount of virus Skin, relative to control defined as 100%", "setting": "[5]; [8]", "value": 96.3, "unit": "%"}, {"measurement": "Skin/brain (ratio)", "setting": "[5]; [8]", "value": ">1.15"}, {"measurement": "Amount of virus (average ± standard deviation, PFU/organ) Brain", "setting": "[5]; [9]", "value": "3.5 ± 0.4 (log10 PFU)/total"}, {"measurement": "Amount of virus (average ± standard deviation, PFU/organ) Skin", "setting": "[5]; [9]", "value": "6.1 ± 0.2 (log10 PFU)/cm^2"}, {"measurement": "Amount of virus Brain, relative to control defined as 100%", "setting": "[5]; [9]", "value": 85.6, "unit": "%"}, {"measurement": "Amount of virus Skin, relative to control defined as 100%", "setting": "[5]; [9]", "value": 95.3, "unit": "%"}, {"measurement": "Skin/brain (ratio)", "setting": "[5]; [9]", "value": 1.12}, {"measurement": "Amount of virus (average ± standard deviation, PFU/organ) Brain", "setting": "[5]; [10]", "value": "2.3 ± 0.3 (log10 PFU)/total"}, {"measurement": "Amount of virus (average ± standard deviation, PFU/organ) Skin", "setting": "[5]; [10]", "value": "6.0 ± 0.1 (log10 PFU)/cm^2"}, {"measurement": "Amount of virus Brain, relative to control defined as 100%", "setting": "[5]; [10]", "value": 57.0, "unit": "%"}, {"measurement": "Amount of virus Skin, relative to control defined as 100%", "setting": "[5]; [10]", "value": 94.2, "unit": "%"}, {"measurement": "Skin/brain (ratio)", "setting": "[5]; [10]", "value": 1.674}, {"measurement": "Amount of virus (average ± standard deviation, PFU/organ) Skin", "setting": "[5]; [11]", "value": "5.5 ± 0.4 (log10 PFU)/cm^2"}, {"measurement": "Amount of virus Skin, relative to control defined as 100%", "setting": "[5]; [11]", "value": 98.2, "unit": "%"}, {"measurement": "Amount of virus (average ± standard deviation, PFU/organ) Skin", "setting": "[5]; [12]", "value": "5.1 ± 0.4 (log10 PFU)/cm^2"}, {"measurement": "Amount of virus Skin, relative to control defined as 100%", "setting": "[5]; [12]", "value": 91.5, "unit": "%"}, {"measurement": "Amount of virus (average ± standard deviation, PFU/organ) Brain", "setting": "[5]; [13]", "value": "3.0 ± 0.6 (log10 PFU)/total"}, {"measurement": "Amount of virus (average ± standard deviation, PFU/organ) Skin", "setting": "[5]; [13]", "value": "4.8 ± 0.7 (log10 PFU)/cm^2"}, {"measurement": "Amount of virus Brain, relative to control defined as 100%", "setting": "[5]; [13]", "value": 80.7, "unit": "%"}, {"measurement": "Amount of virus Skin, relative to control defined as 100%", "setting": "[5]; [13]", "value": 93.9, "unit": "%"}, {"measurement": "Skin/brain (ratio)", "setting": "[5]; [13]", "value": 1.16}, {"measurement": "Amount of virus (average ± standard deviation, PFU/organ) Brain", "setting": "[5]; [14]", "value": "2.7 ± 0.3 (log10 PFU)/total"}, {"measurement": "Amount of virus (average ± standard deviation, PFU/organ) Skin", "setting": "[5]; [14]", "value": "5.6 ± 0.2 (log10 PFU)/cm^2"}, {"measurement": "Amount of virus Brain, relative to control defined as 100%", "setting": "[5]; [14]", "value": 72.2, "unit": "%"}, {"measurement": "Amount of virus Skin, relative to control defined as 100%", "setting": "[5]; [14]", "value": 109.0, "unit": "%"}, {"measurement": "Skin/brain (ratio)", "setting": "[5]; [14]", "value": 31.9}]}]}
